Values after ≈ are worked out from the molar mass of the structure shown.
How the values were obtained:
[1] = target: Voltage-gated inwardly rectifying potassium channel KCNH2 (Homo sapiens, UniProt Q12809)
[2] = target: T1, C-C chemokine receptor type 2 (Homo sapiens, UniProt P41597); assay: Antagonist activity at human CCR2 receptor expressed in human THP-1 cells assessed as inhibition of MCP1-induced Ca2+ flux by FLIPR analysis; type: functional, cell-based
[3] = target: T1, C-C chemokine receptor type 2; assay: Displacement of 125I-MCP1 from human CCR2 receptor expressed in human THP-1 cell membrane by SPA assay; type: cell membranes
[4] = target: T1, C-C chemokine receptor type 2; assay: Displacement of 125I-MCP1 from human CCR2 receptor expressed in human HEK cell membrane; type: cell membranes, HEK293
[5] = target: Cytochrome P450 2D6 (Homo sapiens, UniProt P10635); assay: Inhibition of CYP2D6; type: ADME
[6] = Fraction unbound in human plasma; type: ADME, cell-free
[7] = Half life in rat; type: ADME, organism-based; settings: in vivo
[8] = Intrinsic clearance in rat hepatocytes assessed per 10^6 cells; type: ADME, cell-based, Hepatocyte; settings: read-out: CLH
[9] = Aqueous solubility at pH 7. 4; type: physicochemical; settings: buffer
[10] = Volume of distribution in rat; type: ADME, organism-based; settings: in vivo
[11] = target: Cytochrome P450 3A4 (Homo sapiens, UniProt P08684); assay: Inhibition of CYP3A4; type: ADME
[12] = Fraction unbound in rat plasma; type: ADME, cell-free
[13] = Oral bioavailability in rat; type: ADME, organism-based; settings: in vivo
[14] = Clearance in iv dosed rat; type: ADME, organism-based; settings: in vivo
[15] = Intrinsic clearance in human microsomes assessed per mg of protein; type: ADME, Microsome

T1 sequence (P41597 whole entry): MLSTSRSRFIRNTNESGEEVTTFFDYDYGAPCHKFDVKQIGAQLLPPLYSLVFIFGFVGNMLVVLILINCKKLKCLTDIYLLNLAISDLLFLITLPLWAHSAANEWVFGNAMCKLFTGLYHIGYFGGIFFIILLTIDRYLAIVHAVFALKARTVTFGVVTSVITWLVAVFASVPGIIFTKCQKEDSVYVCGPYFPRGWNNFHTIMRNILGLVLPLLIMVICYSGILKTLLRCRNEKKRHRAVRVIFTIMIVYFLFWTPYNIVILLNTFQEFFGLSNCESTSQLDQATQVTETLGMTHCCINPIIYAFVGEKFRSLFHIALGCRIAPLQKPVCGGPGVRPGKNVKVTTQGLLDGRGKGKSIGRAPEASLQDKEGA
Sequence of Voltage-gated inwardly rectifying potassium channel KCNH2 (Q12809 whole entry): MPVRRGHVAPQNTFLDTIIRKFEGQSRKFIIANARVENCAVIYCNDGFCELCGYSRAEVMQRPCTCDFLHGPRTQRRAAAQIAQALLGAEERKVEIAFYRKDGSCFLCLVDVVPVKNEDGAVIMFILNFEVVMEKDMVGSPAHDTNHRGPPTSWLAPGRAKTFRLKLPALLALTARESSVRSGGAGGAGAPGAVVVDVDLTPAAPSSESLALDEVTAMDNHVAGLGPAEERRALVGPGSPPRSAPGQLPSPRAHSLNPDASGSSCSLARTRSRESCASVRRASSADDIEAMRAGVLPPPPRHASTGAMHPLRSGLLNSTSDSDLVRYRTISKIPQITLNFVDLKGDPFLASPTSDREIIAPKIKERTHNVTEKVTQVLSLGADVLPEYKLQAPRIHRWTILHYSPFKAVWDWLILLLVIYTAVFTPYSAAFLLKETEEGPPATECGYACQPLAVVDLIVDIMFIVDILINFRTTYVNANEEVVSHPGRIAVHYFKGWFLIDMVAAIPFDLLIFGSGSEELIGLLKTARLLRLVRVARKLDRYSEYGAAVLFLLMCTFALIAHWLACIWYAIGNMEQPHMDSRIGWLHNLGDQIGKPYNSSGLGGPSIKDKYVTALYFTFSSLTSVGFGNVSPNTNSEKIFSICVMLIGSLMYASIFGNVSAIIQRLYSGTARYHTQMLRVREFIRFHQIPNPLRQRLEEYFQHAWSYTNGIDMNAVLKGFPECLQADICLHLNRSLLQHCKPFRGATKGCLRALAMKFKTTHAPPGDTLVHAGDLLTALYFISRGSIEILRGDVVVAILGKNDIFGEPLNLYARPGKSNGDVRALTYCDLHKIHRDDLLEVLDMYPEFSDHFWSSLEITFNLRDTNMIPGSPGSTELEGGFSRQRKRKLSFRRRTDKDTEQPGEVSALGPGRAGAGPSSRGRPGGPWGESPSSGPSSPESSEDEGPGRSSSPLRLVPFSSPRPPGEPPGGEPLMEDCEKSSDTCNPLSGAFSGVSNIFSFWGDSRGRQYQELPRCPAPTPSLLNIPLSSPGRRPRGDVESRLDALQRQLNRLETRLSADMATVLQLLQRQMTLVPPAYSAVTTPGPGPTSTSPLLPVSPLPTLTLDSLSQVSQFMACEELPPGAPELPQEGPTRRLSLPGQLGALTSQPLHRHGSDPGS
Sequence of Cytochrome P450 2D6 (P10635 whole entry): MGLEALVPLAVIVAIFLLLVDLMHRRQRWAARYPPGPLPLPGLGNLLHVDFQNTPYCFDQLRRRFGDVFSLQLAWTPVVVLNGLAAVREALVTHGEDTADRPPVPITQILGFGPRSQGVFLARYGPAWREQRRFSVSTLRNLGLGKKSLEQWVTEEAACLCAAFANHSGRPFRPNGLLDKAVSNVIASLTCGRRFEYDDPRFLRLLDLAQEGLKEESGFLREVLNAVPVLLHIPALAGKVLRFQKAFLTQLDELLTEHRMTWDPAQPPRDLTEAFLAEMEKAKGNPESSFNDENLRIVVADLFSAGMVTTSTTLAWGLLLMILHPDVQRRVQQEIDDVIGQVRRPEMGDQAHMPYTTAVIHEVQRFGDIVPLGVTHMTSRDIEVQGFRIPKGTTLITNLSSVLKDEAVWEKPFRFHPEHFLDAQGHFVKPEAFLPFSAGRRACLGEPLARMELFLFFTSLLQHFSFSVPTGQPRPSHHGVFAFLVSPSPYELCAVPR
Sequence of Cytochrome P450 3A4 (P08684 whole entry): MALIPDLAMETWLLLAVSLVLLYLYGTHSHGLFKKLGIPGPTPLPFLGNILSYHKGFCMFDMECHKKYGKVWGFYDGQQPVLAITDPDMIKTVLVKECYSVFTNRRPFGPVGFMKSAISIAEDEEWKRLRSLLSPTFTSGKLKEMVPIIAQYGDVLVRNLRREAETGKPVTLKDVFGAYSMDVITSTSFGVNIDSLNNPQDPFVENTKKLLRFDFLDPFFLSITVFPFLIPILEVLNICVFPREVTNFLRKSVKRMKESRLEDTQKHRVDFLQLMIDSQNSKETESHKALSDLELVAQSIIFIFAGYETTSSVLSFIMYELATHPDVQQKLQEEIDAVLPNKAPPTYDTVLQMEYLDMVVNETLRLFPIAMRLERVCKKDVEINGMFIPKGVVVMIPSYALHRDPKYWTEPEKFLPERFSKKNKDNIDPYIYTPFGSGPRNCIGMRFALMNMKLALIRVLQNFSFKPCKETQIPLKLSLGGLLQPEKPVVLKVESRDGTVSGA

| SMILES | IC50 [1] [nM] | IC50 [2] [nM] | IC50 [3] [nM] | further results |
| --- | --- | --- | --- | --- |
| CN1CCCC(CN2CCN(C(=O)Nc3ccc(Cl)c(Cl)c3)CC2)C1 (centres undefined) | 1600 | 965 | 170 | Ki [4]: 400 nM |
| CCN1CCCC(CN2CCN(C(=O)Nc3ccc(Cl)c(Cl)c3)CC2)C1 (racemic) | 4300 | 627 | 123 | – |
| N#Cc1cccc(NC(=O)N2CCN(C[C@@H]3CCCN(C4CC4)C3)CC2)c1 | – | 5870 | 1050 | – |
| O=C(Nc1ccc(C(F)(F)F)cc1)N1CCN(C[C@@H]2CCCN(C3CC3)C2)CC1 | – | 593 | 68 | – |
| O=C(Nc1ccc(C(F)(F)F)c(Cl)c1)N1CCN(C[C@@H]2CCCN(C3CC3)C2)CC1 | – | 31 | 17 | – |
| O=C(Nc1ccccc1Cl)N1CCN(C[C@@H]2CCCN(C3CC3)C2)CC1 | – | – | > 10000 | – |
| CCN1CCC[C@@H](C(=O)N2CCN(C(=O)Nc3ccc(Cl)c(Cl)c3)CC2)C1 | – | 588 | 856 | – |
| O=C(Nc1cccc(C(F)(F)F)c1)N1CCN(C[C@@H]2CCCN(C3CC3)C2)CC1 | 13000 | 578 | 98 | – |
| CS(=O)(=O)c1cccc(NC(=O)N2CCN(C[C@@H]3CCCN(C4CC4)C3)CC2)c1 | – | – | > 10000 | – |
| O=C(Nc1ccc(Cl)cc1)N1CCN(C[C@@H]2CCCN(C3CC3)C2)CC1 | 14000 | 220 | 127 | – |
| O=C(Nc1ccc(Cl)c(Cl)c1)N1CCN(C[C@@H]2CCCN(C3CC3)C2)CC1 | – | 64 | 10 | IC50 [5]: 3100 nM; fraction unbound [6]: 0.05; half-life [7]: 5 h; hepatocyte CLint [8]: 11 µL/min/1e6 cells; solubility [9]: 290 µM (≈ 119 µg/mL); Vd [10]: 8 L/kg; IC50 [11]: 1600 nM; fraction unbound [12]: 0.05; bioavailability [13]: 11%; clearance [14]: 24 mL/min/kg; microsomal CLint [15]: 5 µL/min/mg |
| CC(C)N1CCO[C@@H](CN2CCN(C(=O)Nc3ccc(Cl)c(Cl)c3)CC2)C1 | 6300 | 42 | 17 | – |
| CCN1CCC[C@@H](CN2CCN(C(=O)Nc3ccc(Cl)c(Cl)c3)CC2)C1 | 2100 | 174 | 37 | – |
| O=C(Nc1ccc(Cl)c(Cl)c1)N1CCN(C[C@@H]2CCCN(Cc3ccccc3)C2)CC1 | – | 244 | 99 | – |
| Cc1ccc(NC(=O)N2CCN(C[C@@H]3CCCN(C4CC4)C3)CC2)cc1Cl | 7100 | 184 | 27 | – |
| O=C(Nc1ccc(Cl)c(Cl)c1)N1CCN(CC2CCCNC2)CC1 (racemic) | – | 950 | 780 | – |
| CCN1CCC[C@H](CN2CCN(C(=O)Nc3ccc(Cl)c(Cl)c3)CC2)C1 | – | – | 1180 | – |
| CN1CCN(C)C(C(=O)N2CCN(C(=O)Nc3ccc(Cl)c(Cl)c3)CC2)C1 (racemic) | 13000 | – | 5500 | – |
| O=C(Nc1ccccc1)N1CCN(C[C@@H]2CCCN(C3CC3)C2)CC1 | – | > 3000 | 710 | – |
